Assay results as given in paper PMC13659687, “Cloning, expression, tertiary structure, activity characteristics, design of inhibitor, hydrolysis and inhibition mechanisms analysis of carp adipose triglyceride lipase (ATGL)” (Food Chemistry: Molecular Sciences, 2026).
Where a SMILES comes first, the peptide text is derived from it.

Assay: Maximum solubility of the small peptide
Type: physicochemical
Details: neutral pH

maximum solubility (4 °C): approximately 0.4 mg/mL
maximum solubility (room temperature): approximately 0.7 mg/mL
Compound: CC[C@H](C)[C@H](NC(=O)[C@H](CC(C)C)NC(=O)[C@@H](N)CCCCN)C(=O)N[C@@H](CCSC)C(=O)N[C@H](C(=O)O)C(C)C [Lys-Leu-Ile-Met-Val] (H-KLIMV-OH)
